This is an account of results in patent US20230406865A1, “CRYSTAL FORM OF FREE BASE OF INHIBITOR CONTAINING BICYCLIC RING DERIVATIVE AND PREPARATION METHOD AND APPLICATION OF CRYSTAL FORM” (SHANGHAI HANSOH BIOMEDICAL CO., LTD., priority 2020, published 2023).

For one series, the target named is T1, RET kinase (Homo sapiens, UniProt P07949).
T1 construct: purchased Carna 08-159
The experiment in a line: HTRF kinase activity inhibition, RET wild-type. The class given is biochemical. The note with it: ATP at Km. An excerpt:
2.2 Experimental Reagents: • RET enzyme was purchased from Carna Company, and the article number was 08-159; • RET M918T enzyme was purchased from Carna Company, and the article number was 08-508; • KIF5B-RET was purchased from SignalChem Company, the article number was R02-19FG-05; • CCDC6-RET was purchased from SignalChem Company, the article number was R02-19BG-05; • RET V804M enzyme was purchased from Thermofisher Company, and the article number was PV6223; • RET V804L enzyme was purchased from Thermofisher Company, and the article number was PV4397; • HTRF KinEASE-TK kit was purchased from Cisbio Company, and the article number was 62TK0PEC; • ATP was purchased from Thermofisher Company, and the article number was PV3227; • 384-well plate was purchased from PerkinElmer Company, and the article number was 6007290.
In this experiment, a homogeneous time-resolved fluorescence (HTRF) method was used for the detection of compounds on RET kinase activity.
For orientation: Time-resolved FRET reads energy transfer from a long-lived donor to a nearby acceptor.

In a further series the target is T2, KDR kinase (Homo sapiens, UniProt P35968).
T2 construct: purchased Carna 08-191
T2 sequence (P35968 20-1356): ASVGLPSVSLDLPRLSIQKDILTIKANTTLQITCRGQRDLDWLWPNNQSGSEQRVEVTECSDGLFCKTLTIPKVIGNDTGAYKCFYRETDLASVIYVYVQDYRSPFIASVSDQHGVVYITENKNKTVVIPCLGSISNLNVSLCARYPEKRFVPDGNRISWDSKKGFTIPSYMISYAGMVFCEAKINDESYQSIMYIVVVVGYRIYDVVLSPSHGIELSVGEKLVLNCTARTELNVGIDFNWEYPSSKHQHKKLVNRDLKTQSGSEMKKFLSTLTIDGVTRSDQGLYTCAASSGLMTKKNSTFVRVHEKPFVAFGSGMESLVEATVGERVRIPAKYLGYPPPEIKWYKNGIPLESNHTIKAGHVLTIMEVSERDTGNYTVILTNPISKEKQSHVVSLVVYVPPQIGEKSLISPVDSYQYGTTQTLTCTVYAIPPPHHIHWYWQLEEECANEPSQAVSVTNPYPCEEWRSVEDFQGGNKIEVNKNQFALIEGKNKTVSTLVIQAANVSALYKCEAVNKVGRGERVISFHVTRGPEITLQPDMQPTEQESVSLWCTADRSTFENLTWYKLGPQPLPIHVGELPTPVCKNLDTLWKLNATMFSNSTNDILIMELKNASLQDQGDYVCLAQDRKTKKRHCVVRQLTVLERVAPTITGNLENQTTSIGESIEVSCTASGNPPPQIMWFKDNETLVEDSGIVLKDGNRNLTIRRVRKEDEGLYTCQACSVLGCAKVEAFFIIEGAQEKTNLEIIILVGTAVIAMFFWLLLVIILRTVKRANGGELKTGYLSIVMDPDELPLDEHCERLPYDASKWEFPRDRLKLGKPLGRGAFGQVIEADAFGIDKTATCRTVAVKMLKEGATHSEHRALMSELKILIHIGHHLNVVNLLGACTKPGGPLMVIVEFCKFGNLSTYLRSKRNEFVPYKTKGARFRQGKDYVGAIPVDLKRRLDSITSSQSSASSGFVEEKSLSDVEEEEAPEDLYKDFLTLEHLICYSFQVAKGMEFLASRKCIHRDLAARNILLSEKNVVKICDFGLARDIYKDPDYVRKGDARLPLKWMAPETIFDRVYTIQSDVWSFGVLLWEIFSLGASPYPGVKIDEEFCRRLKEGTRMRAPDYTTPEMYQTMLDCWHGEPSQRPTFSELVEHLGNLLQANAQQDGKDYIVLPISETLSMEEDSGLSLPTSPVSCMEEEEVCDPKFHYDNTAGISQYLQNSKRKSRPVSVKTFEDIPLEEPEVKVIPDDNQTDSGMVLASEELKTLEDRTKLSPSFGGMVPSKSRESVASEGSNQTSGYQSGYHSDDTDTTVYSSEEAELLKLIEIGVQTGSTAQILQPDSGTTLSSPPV
The experiment in a line: HTRF kinase activity inhibition, KDR. The class given is biochemical. The note with it: for IC50: HTRF, ATP at Km; for Ratio (KDR/RET): KDR IC50 / RET IC50. The source says: 2.2 Experimental Reagents: • KDR kinase was purchased from Carna Company, and the article number was 08-191; • HTRF KinEASE-TK kit was purchased from Cisbio Company, and the article number was 62TK0PEC; • ATP was purchased from Thermofisher Company, and the article number was PV3227; • 384-well plate was purchased from PerkinElmer Company, and the article number was 6007290.
In this experiment, the homogeneous time-resolved fluorescence (HTRF) method was used for the detection of compounds on KDR kinase activity.

Series [1] is described as follows: Balb/C mouse pharmacokinetics, oral 5 mg/kg. The class given is in vivo, Balb/C mice. The note with it: male, p.o. 5 mg/kg, plasma. Here is the method: The pharmacokinetic behavior of the following compound embodiments, administered orally at a dose of 5 mg/kg in plasma in mice, was studied using Balb/C mice as test animals.
Balb/C Mouse 6/embodiment, male, Shanghai Jiesijie Laboratory Animal Co., Ltd, Animal Production License No. (SCXK (Shanghai) 2013-0006 N0.311620400001794).
Balb/C mice, males; p.o. after overnight fasting, respectively, at a dose of 5 mg/kg, administered in a volume of 10 mL/kg.
0.5% CMC-Na (1% Tween80) was dissolved by ultrasound, and prepared into clear solution or uniform suspension.
Before and after administration, 0.1 mL of blood was collected from mice at 0, 0.5, 1, 2, 4, 6, 8 and 24 hours by orbital collection, placed in EDTA-K2 tubes, centrifuged at 6000 rpm at 4° C. for 6 minutes to separate plasma, and stored at −80° C.
2.5 Sample Handling: • 1) 40 μL of plasma sample was precipitated by adding 160 μL of acetonitrile, mixed and centrifuged at 3500×g for 5-20 minutes. • 2) 100 μL of the supernatant solution after treatment was taken to analyze the concentration of the test compound by LC/MS/MS.
2.6 Liquid Phase Analysis • Liquid phase conditions: Shimadzu LC-20AD pump • Mass spectrometry conditions: AB Sciex API 4000 mass spectrometer • Chromatographic column: phenomenex Gemiu 5 μM C18 50×4.6 mm • Mobile phase: Liquid A was 0.1% formic acid aqueous solution, liquid B was acetonitrile • Flow rate: 0.8 mL/min • Elution time: 0-4.0 minutes, the eluent was as follows:
The main pharmacokinetic parameters were calculated by WinNonlin 6.1 and the results of the mouse pharmacokinetic experiments were shown in Table 13 below.

T1 sequence (P07949 29-1114): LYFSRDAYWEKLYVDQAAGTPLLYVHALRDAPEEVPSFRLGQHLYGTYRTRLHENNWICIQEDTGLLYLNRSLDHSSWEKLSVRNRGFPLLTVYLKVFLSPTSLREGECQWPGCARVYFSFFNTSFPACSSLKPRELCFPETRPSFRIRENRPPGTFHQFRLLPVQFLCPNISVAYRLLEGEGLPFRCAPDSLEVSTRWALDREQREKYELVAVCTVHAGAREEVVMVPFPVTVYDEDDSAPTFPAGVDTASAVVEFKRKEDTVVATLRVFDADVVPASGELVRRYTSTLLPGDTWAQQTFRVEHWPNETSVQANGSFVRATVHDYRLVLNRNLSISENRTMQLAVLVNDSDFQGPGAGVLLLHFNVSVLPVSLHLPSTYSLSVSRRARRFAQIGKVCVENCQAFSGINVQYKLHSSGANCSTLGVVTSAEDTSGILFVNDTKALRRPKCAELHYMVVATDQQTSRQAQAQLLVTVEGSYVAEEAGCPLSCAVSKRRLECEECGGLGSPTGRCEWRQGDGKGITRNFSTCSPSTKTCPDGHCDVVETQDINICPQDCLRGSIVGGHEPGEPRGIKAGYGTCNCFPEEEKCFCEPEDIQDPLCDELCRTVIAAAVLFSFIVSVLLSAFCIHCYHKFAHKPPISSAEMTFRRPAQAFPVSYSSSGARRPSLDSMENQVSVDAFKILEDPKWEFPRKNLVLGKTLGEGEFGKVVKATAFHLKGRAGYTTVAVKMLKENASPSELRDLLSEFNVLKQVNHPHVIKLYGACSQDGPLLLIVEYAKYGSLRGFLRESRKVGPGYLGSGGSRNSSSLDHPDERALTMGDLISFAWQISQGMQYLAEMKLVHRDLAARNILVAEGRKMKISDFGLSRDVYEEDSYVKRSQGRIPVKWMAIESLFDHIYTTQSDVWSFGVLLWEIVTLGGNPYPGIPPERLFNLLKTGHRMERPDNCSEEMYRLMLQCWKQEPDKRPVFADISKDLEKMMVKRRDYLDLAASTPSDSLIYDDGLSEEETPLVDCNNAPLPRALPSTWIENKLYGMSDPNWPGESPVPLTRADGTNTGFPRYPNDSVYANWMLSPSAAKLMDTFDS

By IC50 is commonly meant the point on the concentration scale where inhibition reaches its midpoint. Lower therefore signals higher potency. `COc1ccc(CN2C3CC2CN(c2ccc(-c4cc(OCCCS(C)(=N)=O)cn5ncc(C#N)c45)cn2)C3)cn1` (stereo not drawn) [Embodiment 6, 4-(6-(6-((6-Methoxypyridin-3-yl)methyl)-3,6-diazabicyclo[3.1.1]heptan-3-yl)pyridin-3-yl)-6-(3-(S-methylsulfonimidoyl)propoxy)pyrazolo[1,5-a]pyridine-3-carbonitrile] returned an IC50 against RET kinase of 0.79 nM. Also, at KDR kinase, the IC50 came out at 27.7 nM and the “Ratio (KDR/RET)” value is reported as 35.
On RET kinase, `COc1ccc(CN2C3CC2CN(c2ccc(-c4cc(OCC5CS(=N)(=O)C5)cn5ncc(C#N)c45)cn2)C3)cn1` (stereo not drawn) [Embodiment 12, 6-((1-Imino-1-hydroxy-1l6-thietan-3-yl)methoxy)-4-(6-(6-((6-methoxypyridin-3-yl)methyl)-3,6-diazabicyclo[3.1.1]heptan-3-yl)pyridin-3-yl)pyrazolo[1,5-a]pyridine-3-carbonitrile] returned an IC50 of 1.3 nM. On KDR kinase, half-maximal inhibition (IC50) required 69 nM and the “Ratio (KDR/RET)” value was determined as 55.
As for `COc1ccc(CN2C3CC2CN(c2ccc(-c4cc(N5CC(C)(O)C5)cn5ncc(C#N)c45)cn2)C3)cn1` [Embodiment 33, 6-(3-Hydroxy-3-methylazetidin-1-yl)-4-(6-(6-((6-methoxypyridin-3-yl)methyl)-3,6-diazabicyclo[3.1.1]heptan-3-yl)pyridin-3-yl)pyrazolo[1,5-a]pyridine-3-carbonitrile], it took 0.4 nM to reach half-maximal inhibition at RET kinase (IC50). Moreover, on KDR kinase, the IC50 stood at 5.6 nM and the “Ratio (KDR/RET)” value is 14.
Take `COc1ccc(CN2C3CC2CN(c2ccc(-c4cc(N5CCC(C)(O)C5)cn5ncc(C#N)c45)cn2)C3)cn1` (stereo not drawn) [Embodiment 34, 6-(3-Hydroxy-3-methylpyrrolidin-1-yl)-4-(6-(6-((6-methoxypyridin-3-yl)methyl)-3,6-diazabicyclo[3.1.1]heptan-3-yl)pyridin-3-yl)pyrazolo[1,5-a]pyridine-3-carbonitrile]: on RET kinase, the IC50 stood at 0.7 nM. At KDR kinase, half-maximal inhibition (IC50) required 4.7 nM and the “Ratio (KDR/RET)” value is given as 7.
`COc1ccc(CN2C3CC2CN(c2ccc(-c4cc(N5CCC(C)(O)CC5)cn5ncc(C#N)c45)cn2)C3)cn1` [Embodiment 35, 6-(4-Hydroxy-4-methylpiperidin-1-yl)-4-(6-(6-((6-methoxypyridin-3-yl)methyl)-3,6-diazabicyclo[3.1.1]heptan-3-yl)pyridin-3-yl)pyrazolo[1,5-a]pyridine-3-carbonitrile] showed an IC50 on RET kinase of 0.49 nM. For the same compound, on KDR kinase, the IC50 worked out at 6.2 nM and the “Ratio (KDR/RET)” value was 13.
As usually defined, the MRT is a mean duration of stay, worked out from the concentration-time curve. For orientation: Tmax means the time at which the peak concentration occurs. `COc1ccc(CN2C3CC2CN(c2ccc(-c4cc(OCC5(C#N)CCC5)cn5ncc(C#N)c45)cn2)C3)cn1` [Embodiment 36, 6-((1-Cyanocyclobutyl)methoxy)-4-(6-(6-((6-methoxypyridin-3-yl)methyl)-3,6-diazabicyclo[3.1.1]heptan-3-yl)pyridin-3-yl)pyrazolo[1,5-a]pyridine-3-carbonitrile] showed an IC50 against RET kinase of 0.83 nM. At KDR kinase, the IC50 was 213 nM and the “Ratio (KDR/RET)” value came out at 257. Moreover, the mean residence time MRT in series [1] (read-out: Average residence time MRT) was 3.8 h. Besides, the Cmax in series [1] (read-out: Blood concentration Cmax) came out at 1490 ng/mL. Further, the AUC(0-t) in series [1] (read-out: Curve area AUC0-t) turned out to be 6210 ng·h/mL. Also, in series [1] (read-out: Curve area AUC0-∞), the AUC(0-inf) is 6220 ng·h/mL. Also, the half-life in series [1] (read-out: Half-life t1/2 (converted)) is 2.19 h. In addition, in series [1] (read-out: Peak time tmax), the Tmax is 0.5 h.
For the compound `COc1ccc(CN2C3CC2CN(c2ccc(-c4cc(OCC5(C#N)COC5)cn5ncc(C#N)c45)cn2)C3)cn1` [Embodiment 37, 6-((3-Cyanooxetan-3-yl)methoxy)-4-(6-(6-((6-methoxypyridin-3-yl)methyl)-3,6-diazabicyclo[3.1.1]heptan-3-yl)pyridin-3-yl)pyrazolo[1,5-a]pyridine-3-carbonitrile], the half-inhibitory concentration (IC50) on RET kinase is 0.71 nM; on KDR kinase it was 60.4 nM. Also, on KDR kinase, the “Ratio (KDR/RET)” value was found to be 85.
In the same order, the values of `COc1ccc(CN2C3CC2CN(c2ccc(-c4cc(NC(=O)C(C)(C)O)cn5ncc(C#N)c45)cn2)C3)cn1` [Embodiment 42, N-(3-Cyano-4-(6-(6-((6-methoxypyridin-3-yl)methyl)-3,6-diazabicyclo[3.1.1]heptan-3-yl)pyridin-3-yl)pyrazolo[1,5-a]pyridin-6-yl)-2-hydroxy-2-methylpropanamide] are 1.56 nM, 105 nM and 67.
Compound `COc1ccc(CN2C3CC2CN(c2ccc(-c4cc(OCC5(C#N)CC(F)(F)C5)cn5ncc(C#N)c45)cn2)C3)cn1` [Embodiment 57, 6-((1-Cyano-3,3-difluorocyclobutyl)methoxy)-4-(6-(6-((6-methoxypyridin-3-yl)methyl)-3,6-diazabicyclo[3.1.1]heptan-3-yl)pyridin-3-yl)pyrazolo[1,5-a]pyridine-3-carbonitrile] came in with an IC50 on RET kinase of 1.1 nM. For the same compound, on KDR kinase, the midpoint of inhibition, the IC50, lay at 209 nM and the “Ratio (KDR/RET)” value was 187.
On to `COc1ccc(CN2C3CC2CN(c2ccc(-c4cc(NC(=O)C5(C#N)CC5)cn5ncc(C#N)c45)cn2)C3)cn1` [Embodiment 74, 1-Cyano-N-(3-cyano-4-(6-(6-((6-methoxypyridin-3-yl)methyl)-3,6-diazabicyclo[3.1.1]heptan-3-yl)pyridin-3-yl)pyrazolo[1,5-a]pyridin-6-yl)cyclopropane-1-carboxamide], for which 1.8 nM corresponded to half-maximal inhibition against RET kinase (IC50). For the same compound, on KDR kinase, the 50% inhibitory concentration (IC50) worked out at 247 nM and the “Ratio (KDR/RET)” value was 137.
Turning to `CC1(NC(=O)c2ncccc2Cl)CCN(c2ccc(-c3cc(N4CC(C(C)(C)O)C4)cn4ncc(C#N)c34)cn2)CC1` [Embodiment 88, 3-Chloro-N-(1-(5-(3-cyano-6-(3-(2-hydroxypropan-2-yl)azetidin-1-yl)pyrazolo[1,5-a]pyridin-4-yl)pyridin-2-yl)-4-methylpiperidin-4-yl)picolinamide], the IC50 on RET kinase was 1.2 nM. In addition, at KDR kinase, the half-maximal inhibitory concentration (IC50) is 61 nM and the “Ratio (KDR/RET)” value was 49.
On RET kinase, `CC1(O)CC2(CN(c3cc(-c4ccc(N5CCC(C)(NC(=O)c6ncccc6Cl)CC5)nc4)c4c(C#N)cnn4c3)C2)C1` [Embodiment 89, 3-Chloro-N-(1-(5-(3-cyano-6-(6-hydroxy-6-methyl-2-azaspiro[3.3]heptan-2-yl)pyrazolo[1,5-a]pyridin-4-yl)pyridin-2-yl)-4-methylpiperidin-4-yl)picolinamide] returned an IC50 of 1.1 nM. Moreover, at KDR kinase, the midpoint of inhibition, the IC50, lay at 8.9 nM and the “Ratio (KDR/RET)” value came out at 8.
As for `CC1(NC(=O)c2ncccc2F)CCN(c2ccc(-c3cc(OCC4(C#N)CC4)cn4ncc(C#N)c34)cn2)CC1` [Embodiment 93, N-(1-(5-(3-Cyano-6-((1-cyanocyclopropyl)methoxy)pyrazolo[1,5-a]pyridin-4-yl)pyridin-2-yl)-4-methylpiperidin-4-yl)-3-fluoropicolinamide], the 50% inhibitory concentration (IC50) on RET kinase was 1.1 nM. Besides, on KDR kinase, half-maximal inhibition (IC50) required 150 nM and the “Ratio (KDR/RET)” value is listed as 136.
In the case of `CC1(C#N)CN(c2cc(-c3ccc(N4CCC(C)(NC(=O)c5ncccc5Cl)CC4)nc3)c3c(C#N)cnn3c2)C1` [Embodiment 96, 3-Chloro-N-(1-(5-(3-cyano-6-(3-cyano-3-methylazetidin-1-yl)pyrazolo[1,5-a]pyridin-4-yl)pyridin-2-yl)-4-methylpiperidin-4-yl)picolinamide], the IC50 against RET kinase came out at 0.72 nM. Further, at KDR kinase, the IC50 stood at 15.8 nM and the “Ratio (KDR/RET)” value is 22.
